# How the values were obtained:
# Experiment in all cases: relative viability (nuclei count vs DMSO), 5 days (fraction); higher = more cells survive
# [1] = compound: C1=CC=C2C(=C1)N=C(S2)C(C#N)C3=NC(=NC=C3)NCCC4=CN=CC=C4 + CCNC(=O)c1noc(-c2cc(C(C)C)c(O)cc2O)c1-c1ccc(CN2CCOCC2)cc1 [Luminespib] (partner 0.01 µM)
# Method in brief: (§1)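 Medians of duplicate plates are given as relative viability. That measure is the nuclei count in treated wells divided by the count in vehicle wells. Counts were taken on 4× images of lung cancer cell lines in 1536-well plates, 5 days after pin-tool dosing the day after seeding with one drug alone or a fixed anchor-drug dose plus five library-drug doses (not always all listed) in √10 steps.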
# [2] = compound: C1=CC=C2C(=C1)N=C(S2)C(C#N)C3=NC(=NC=C3)NCCC4=CN=CC=C4 + CC(C)C[C@H](NC(=O)[C@H](Cc1ccccc1)NC(=O)c1cnccn1)B(O)O [Bortezomib] (partner 0.002 µM)
# Method in brief: as §1
# [3] = compound: C1=CC=C2C(=C1)N=C(S2)C(C#N)C3=NC(=NC=C3)NCCC4=CN=CC=C4 + CS(=O)(=O)CCNCc1ccc(-c2ccc3ncnc(Nc4ccc(OCc5cccc(F)c5)c(Cl)c4)c3c2)o1 [Lapatinib] (partner 2 µM)
# Method in brief: as §1
# [4] = compound: COc1cc(N2CCC(N3CCN(C)CC3)CC2)ccc1Nc1ncc(Cl)c(Nc2ccccc2S(=O)(=O)C(C)C)n1 [NVP-TAE684] + CC(=O)Nc1cccc(-n2c(=O)n(C3CC3)c(=O)c3c(Nc4ccc(I)cc4F)n(C)c(=O)c(C)c32)c1 [Trametinib] (partner 0.02 µM)
# Method in brief: as §1
cell line,measurement,setting,value
UMC-11,relative viability,[1]; first compound 0.005 µM,0.735
same,relative viability,[1]; first compound 0.01581 µM,1.04
same,relative viability,[1]; first compound 0.05 µM,0.861
same,relative viability,[1]; first compound 0.1581 µM,1.03
same,relative viability,[1]; first compound 0.5 µM,0.957
same,relative viability,[2]; first compound 0.005 µM,0.458
same,relative viability,[2]; first compound 0.01581 µM,0.695
same,relative viability,[2]; first compound 0.05 µM,0.901
same,relative viability,[2]; first compound 0.1581 µM,0.875
same,relative viability,[2]; first compound 0.5 µM,0.488
same,relative viability,[3]; first compound 0.005 µM,0.902
same,relative viability,[3]; first compound 0.01581 µM,0.877
same,relative viability,[3]; first compound 0.05 µM,0.843
same,relative viability,[3]; first compound 0.1581 µM,1.59
same,relative viability,[3]; first compound 0.5 µM,0.901
same,relative viability,[4]; first compound 0.2 µM,0.701
same,relative viability,[4]; first compound 0.6325 µM,0.636
same,relative viability,[4]; first compound 2 µM,0.434

# — the supplement of paper PMC10307832
